Assay results as given in PMC10608985, “Retention Behavior of Anticancer Thiosemicarbazides in Biomimetic Chromatographic Systems and In Silico Calculations” (Molecules, 2023).

What was measured:
[1] = HPLC lipophilicity on cholesterol (Chol) stationary phase; format: physicochemical; conditions: pH 7.4; for Log k Chol: Table S3
In short: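 Cholesterol-bonded column run isocratically with MeOH/20 mM acetate buffer at pH 7.4, MeOH fraction 0.3–0.8 (v/v), 0.35 mL/min, room temperature, UV 280 nm. t0 from citric acid; log kw (intercept) and slope S from Soczewiński–Wachtmeister regression of log k against modifier content.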

[2] = set-up: method as in Kozyra et al. [31]; conditions: MeOH/20 mM acetate buffer, pH 7.4, ref Kozyra et al. [31], cited from earlier work
[3] = molecular target: T1, human serum albumin (HSA) (Homo sapiens, UniProt P02768); experiment: HPLC on immobilized HSA column, affinity and % plasma–protein binding; format: in vitro ADME
T1 construct: purchased Chiralpac
T1 sequence (P02768 25-609): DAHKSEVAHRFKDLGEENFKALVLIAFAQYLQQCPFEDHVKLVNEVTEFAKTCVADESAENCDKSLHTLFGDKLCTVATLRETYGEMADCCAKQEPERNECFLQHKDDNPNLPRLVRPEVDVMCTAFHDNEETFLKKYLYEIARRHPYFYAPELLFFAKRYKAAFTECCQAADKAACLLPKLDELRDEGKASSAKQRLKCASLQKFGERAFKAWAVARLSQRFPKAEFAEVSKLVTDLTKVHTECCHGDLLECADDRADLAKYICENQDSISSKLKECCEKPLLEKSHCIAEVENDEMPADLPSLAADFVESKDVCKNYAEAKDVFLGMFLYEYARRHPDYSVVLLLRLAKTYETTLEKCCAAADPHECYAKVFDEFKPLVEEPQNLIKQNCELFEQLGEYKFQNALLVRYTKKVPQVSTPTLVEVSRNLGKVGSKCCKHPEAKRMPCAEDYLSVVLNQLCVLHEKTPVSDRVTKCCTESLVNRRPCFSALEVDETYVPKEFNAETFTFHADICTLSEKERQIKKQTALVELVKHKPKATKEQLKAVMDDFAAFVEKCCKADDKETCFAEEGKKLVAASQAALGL
In short: (§1)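 Retention (log k) on immobilized-protein HPLC columns, 50 mM ammonium acetate pH 7.4 with propan-2-ol (85/15 for AGP), UV 280 nm, room temperature. log K read from drug calibration curves, then converted to %PPB.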

[4] = HPLC lipophilicity on IAM (immobilized artificial membrane, phosphatidylcholine) stationary phase; format: physicochemical; conditions: pH 7.4; for Log k IAM: Table S2
In short: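 Rexchrom IAM.PC.DD2 column with ACN/20 mM phosphate buffer pH 7.4 (0.15 M KCl), ACN fraction 0.05–0.4 v/v at 0.05 steps, 1 mL/min, UV 280 nm, room temperature; t0 from citric acid. log kw and slope S extrapolated via Soczewiński–Wachtmeister equation.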

[5] = test system: α1-acid glycoprotein (AGP); experiment: HPLC on immobilized AGP column, affinity and % plasma–protein binding; format: in vitro ADME, human
In short: as §1

O=C(COc1ccccc1)NNC(=S)Nc1cc(Cl)ccc1Cl [Compound 14]
Log k Chol ([1]; MeOH 0.45 v/v in mobile phase): 1.095
Log k Chol ([1]; MeOH 0.50 v/v in mobile phase): 0.716
Log k Chol ([1]; MeOH 0.60 v/v in mobile phase): 0.574
Log k Chol ([1]; MeOH 0.70 v/v in mobile phase): -0.138
Log k Chol ([1]; MeOH 0.80 v/v in mobile phase): -0.783
log kw Chol ([1]; intercept, linear extrapolation to water, MeOH/20 mM acetate buffer): 3.4243
-S Chol ([1]; slope of Soczewiński–Wachtmeister equation, MeOH/20 mM acetate buffer): 5.1337
log kw C-18 ([2]; intercept of Soczewiński–Wachtmeister equation (water as mobile phase)): 3.7050
-S C-18 ([2]; slope of Soczewiński–Wachtmeister equation): 5.6376
log K HSA ([3]; binding equilibrium constant from calibration curve (Equation 8) of log k HSA): 2.2183
log k HSA ([3]; retention on HSA column, 50 mM ammonium acetate pH 7.4 / propan-2-ol 85/15 (v/v)): 1.8689
Log k IAM ([4]; ACN 0.15 v/v in mobile phase): 1.494
Log k IAM ([4]; ACN 0.20 v/v in mobile phase): 1.133
Log k IAM ([4]; ACN 0.25 v/v in mobile phase): 0.710
Log k IAM ([4]; ACN 0.30 v/v in mobile phase): 0.154
Log k IAM ([4]; ACN 0.35 v/v in mobile phase): -0.027
Log k IAM ([4]; ACN 0.40 v/v in mobile phase): -0.366
log kw IAM ([4]; intercept, linear extrapolation to water, ACN/20 mM phosphate buffer): 2.6121
-S IAM ([4]; slope of Soczewiński–Wachtmeister equation, ACN/20 mM phosphate buffer): 7.6211
log K AGP ([5]; binding equilibrium constant from calibration curve (Equation 9) of log k AGP): 0.8829
fraction unbound ([5]; human, pH 7.4, % plasma–protein binding converted from log K AGP (Equation 10), read-out: %PPB AGP (converted)): 0.107
log k AGP ([5]; retention on AGP column, 50 mM ammonium acetate pH 7.4 / propan-2-ol 85/15 (v/v)): 0.7971
